Source: patent publication US9845330B2, “6-nitro-2,3-dihydroimidazo[2,1-b]oxazoles and a process for the preparation thereof” (priority 2013, dated 2017)
Values after ≈ are worked out from the molar mass of the structure shown. Like-named read-outs stand apart in the source and are kept apart here.

Legend:
Format in all cases: cell-based
[1] = Cytotoxicity assay (MTT) in macrophage J774 cells; conditions: mouse, J774 macrophage cells; also called safety index
Protocol: (§1) The study was carried out using macrophage J774 cells line (ATCC-USA). Cells were grown in Rosewell Park Memorial Institute Medium (RPMI) containing 10% fetal calf serum (FCS) and supplemented with 75 mg/liter penicillin, 100 mg/liter streptomycin, 110 mg/liter Sodium pyruvate, 2.38 gm/liter HEPES, 0.05 mM 2 β-mercaptoethanol, and 2 gm/liter NaHCO3, in a humidified atmosphere in 5% CO2 at 37° C., and were sub-cultured at 1:4 ratio once a week.
(§2) Cells were plated at a density of 3×10^4 cells/cm^2 and maintained in culture medium for 12 hours. Cells were seeded onto 96-well flat bottom plates and FCS was reduced to 5% for the experiment. Stock solutions of compounds IA1 to IIC10 were prepared fresh to avoid oxidation. Cells were incubated with the compounds (40 μg/ml) for 24 hrs.
(§3) After the completion of incubation, the medium was removed and cell viability was evaluated by assaying for the ability of functional mitochondria to catalyze the reduction of 3-(4,5-dimethylthiazol-2-yl)-2,5-diphenyltetrazolium bromide (MTT) to form formazan salt by mitochondrial dehydrogenases, and determined by Elisa reader at 450 nm (Multiskan Spectrum; Thermo Electron Corporation, USA). Percentage cytotoxicity was calculated with respect to the untreated cells.

[2] = test system: macrophage J774 cells line; experiment: Cytotoxicity assay (MTT) in macrophage J774 cells; conditions: J774 cells, 24 hrs, MTT
Protocol: as §1, §2, §3

[3] = test system: M. tuberculosis H37Rv (ATCC 27294); experiment: MIC by broth dilution method, M. tuberculosis H37Rv; conditions: Mycobacterium tuberculosis
[4] = 504 h, broth dilution, 3 weeks, read-out: MIC M. tb H37Rv
[5] = read-out: MIC value, text summary: sensitive H37Rv as well as MDR and XDR strains of M. tuberculosis

SMILES	selectivity ratio at 24 h, 40 μg/ml [1]	Cytotoxicity [2] [µg/mL]	MIC [3, 4] [µg/mL]	MIC [3, 5] [µg/mL]
C[C@]1(COc2ccc(-c3cc(-c4ccccc4F)on3)cc2)Cn2cc([N+](=O)[O-])nc2O1 [IC4, (R)-2-{4-[5-(2-fluorophenyl)isoxazol-3-yl]phenoxymethyl}-2,3-dihydro-2-methyl-6-nitroimidazo[2,1-b]oxazole]	> 10	>40	2 (≈ 4.58 µM)	–
CCCCCc1cc(-c2ccc(OC[C@@]3(C)Cn4cc([N+](=O)[O-])nc4O3)cc2)no1 [IC11, (R)-2-{4-[5-pentylisoxazol-3-yl]phenoxymethyl}-2,3-dihydro-2-methyl-6-nitroimidazo[2,1-b]oxazole]	> 10	>40	32 (≈ 77.6 µM)	–
Cc1ccc(OCc2cc(-c3ccc(OC[C@@]4(C)Cn5cc([N+](=O)[O-])nc5O4)cc3)no2)cc1 [IC17, (R)-2-{4-[5-(4-methylphenoxymethyl)isoxazol-3-yl]phenoxymethyl}-2,3-dihydro-2-methyl-6-nitroimidazo[2,1-b]oxazole]	> 10	>40	0.5 (≈ 1.08 µM)	< 1
CCCCCc1cn(-c2ccc(OC[C@@]3(C)Cn4cc([N+](=O)[O-])nc4O3)cc2)nn1 [IA15, (R)-2-{4-[4-pentyl-1H-1,2,3-triazol-1-yl]phenoxymethyl}-2,3-dihydro-2-methyl-6-nitroimidazo[2,1-b]oxazole]	> 10	>40	32 (≈ 77.6 µM)	–
C[C@]1(COc2ccc(-n3cc(-c4ccccc4C(F)(F)F)nn3)cc2)Cn2cc([N+](=O)[O-])nc2O1 [IA6, (R)-2-{4-[4-(2-trifluoromethylphenyl)-1H-1,2,3-triazol-1-yl]phenoxymethyl}-2,3-dihydro-2-methyl-6-nitroimidazo[2,1-b]oxazole]	> 10	>40	1 (≈ 2.06 µM)	–
C[C@]1(COc2ccc(-c3cc(-c4ccc(F)cc4F)on3)cc2)Cn2cc([N+](=O)[O-])nc2O1 [IC3, (R)-2-{4-[5-(2,4-difluorophenyl)isoxazol-3-yl]phenoxymethyl}-2,3-dihydro-2-methyl-6-nitroimidazo[2,1-b]oxazole]	> 10	>40	0.25 (≈ 0.55 µM)	< 1
C[C@]1(COc2ccccc2-n2cc(COc3ccccc3F)nn2)Cn2cc([N+](=O)[O-])nc2O1 [IA42]	> 10	>40	2 (≈ 4.29 µM)	–
CCOC(=O)N1CCN(S(=O)(=O)c2ccc(OC[C@@]3(C)Cn4cc([N+](=O)[O-])nc4O3)cc2)CC1 [IIC5, (R)-ethyl-{4-[4-(2-methyl-6-nitro-2,3-dihydroimidazo[2,1-b]oxazol-2yl)methoxyphenyl]sulfonyl}piperazine-1-carboxylate]	> 10	>40	2 (≈ 4.04 µM)	–
COc1ccc(-c2cn(-c3ccc(OC[C@@]4(C)Cn5cc([N+](=O)[O-])nc5O4)cc3)nn2)cc1 [IA11, (R)-2-{4-[4-(4-methoxyphenyl)-1H-1,2,3-triazol-1-yl]phenoxymethyl}-2,3-dihydro-2-methyl-6-nitroimidazo[2,1-b]oxazole]	> 10	>40	0.25 (≈ 0.557 µM)	< 1
C[C@]1(COc2ccc(S(=O)(=O)N3CCCCC3)cc2)Cn2cc([N+](=O)[O-])nc2O1 [IIC7, (R)-2-{4-(piperidin-1-ylsulfonyl)phenoxymethyl}-2,3-dihydro-2-methyl-6-nitroimidazo[2,1-b]oxazole]	> 10	>40	1 (≈ 2.37 µM)	–
C[C@]1(COc2ccc(S(=O)(=O)N3CCOCC3)cc2)Cn2cc([N+](=O)[O-])nc2O1 [IIC10, (R)-2-{4-(morpholinsulfonyl)phenoxymethyl}-2,3-dihydro-2-methyl-6-nitroimidazo[2,1-b]oxazole]	> 10	>40	0.5 (≈ 1.18 µM)	0.5 (≈ 1.18 µM)
CCC(C)c1ccc(OCc2cn(-c3ccc(OC[C@@]4(C)Cn5cc([N+](=O)[O-])nc5O4)cc3)nn2)cc1 (some centres unmarked) [IA32]	> 10	>40	0.12 (≈ 0.238 µM)	< 1
C[C@]1(COc2ccc(-n3cc(-c4ccc(OC(F)(F)F)cc4)nn3)cc2)Cn2cc([N+](=O)[O-])nc2O1 [IA5, (R)-2-{4-[4-(4-trifluoromethoxyphenyl)-1H-1,2,3-triazol-1-yl]phenoxymethyl}-2,3-dihydro-2-methyl-6-nitroimidazo[2,1-b]oxazole]	> 10	>40	0.5 (≈ 0.995 µM)	< 1
C[C@]1(COc2ccccc2-n2cc(-c3ccc(F)cc3F)nn2)Cn2cc([N+](=O)[O-])nc2O1 [IA24, (R)-2-{2-[4-(2,4-difluorophenyl)-1H-1,2,3-triazol-1-yl]phenoxymethyl}-2,3-dihydro-2-methyl-6-nitroimidazo[2,1-b]oxazole]	> 10	>40	1 (≈ 2.2 µM)	–
C[C@]1(COc2ccc(-c3cc(COc4ccc(F)cc4F)on3)cc2)Cn2cc([N+](=O)[O-])nc2O1 [IC22, (R)-2-{4-[5-(2,4-difluorophenoxymethyl)isoxazol-3-yl]phenoxymethyl}-2,3-dihydro-2-methyl-6-nitroimidazo[2,1-b]oxazole]	> 10	>40	0.12 (≈ 0.248 µM)	< 1
C[C@]1(COc2cccc(-n3cc(COc4ccc(F)cc4)nn3)c2)Cn2cc([N+](=O)[O-])nc2O1 [IA34]	> 10	>40	0.12 (≈ 0.257 µM)	< 1
C[C@]1(COc2ccc(-c3cc(-c4ccc(C(F)(F)F)cc4)on3)cc2)Cn2cc([N+](=O)[O-])nc2O1 [IC5, (R)-2-{4-[5-(4-trifluoromethylphenyl)isoxazol-3-yl]phenoxymethyl}-2,3-dihydro-2-methyl-6-nitroimidazo[2,1-b]oxazole]	> 10	>40	1 (≈ 2.06 µM)	–
C[C@]1(COc2ccccc2-n2cc(COc3ccc(C(F)(F)F)cc3)nn2)Cn2cc([N+](=O)[O-])nc2O1 [IA41]	> 10	>40	2 (≈ 3.87 µM)	–
C[C@]1(COc2ccc(-n3cc(-c4cccc(OC(F)(F)F)c4)nn3)cc2)Cn2cc([N+](=O)[O-])nc2O1 [IA12, (R)-2-{4-[4-(3-trifluoromethoxyphenyl)-1H-1,2,3-triazol-1-yl]phenoxymethyl}-2,3-dihydro-2-methyl-6-nitroimidazo[2,1-b]oxazole]	> 10	>40	0.5 (≈ 0.995 µM)	< 1
C[C@]1(COc2ccc(NC(=O)Nc3ccc(OC(F)(F)F)cc3)cc2)Cn2cc([N+](=O)[O-])nc2O1 [IIA6, (R)-1-(4-trifluoromethoxyphenyl)-3-{4-(2-methyl-6-nitro-2,3-dihydroimidazo[2,1-b]oxazol-2-yl)methoxyphenyl}urea]	> 10	>40	0.5 (≈ 1.01 µM)	< 1
COc1ccc(NC(=O)Nc2ccc(OC[C@@]3(C)Cn4cc([N+](=O)[O-])nc4O3)cc2)cc1 [IIA5, (R)-1-(4-methoxyphenyl)-3-{4-(2-methyl-6-nitro-2,3-dihydroimidazo[2,1-b]oxazol-2-yl)methoxyphenyl}urea]	> 10	>40	1 (≈ 2.28 µM)	–
C[C@]1(COc2ccc(-n3cc(-c4ccccn4)nn3)cc2)Cn2cc([N+](=O)[O-])nc2O1 [IA14]	> 10	>40	2 (≈ 4.77 µM)	–
C[C@]1(COc2ccc(S(=O)(=O)N3CCN(c4ccc(OC(F)(F)F)cc4)CC3)cc2)Cn2cc([N+](=O)[O-])nc2O1 [IIC4, (R)-2-{4-[4-(4-trifluoromethoxyphenyl)piperazin-1-yl]sulfonylphenoxymethyl}-2,3-dihydro-2-methyl-6-nitroimidazo[2,1-b]oxazole]	> 10	>40	2 (≈ 3.43 µM)	–
C[C@]1(COc2ccc(S(=O)(=O)N3CCCC3)cc2)Cn2cc([N+](=O)[O-])nc2O1 [IIC9, (R)-2-{4-(pyrrolidin-1-ylsulfonyl)phenoxymethyl}-2,3-dihydro-2-methyl-6-nitroimidazo[2,1-b]oxazole]	> 10	>40	1 (≈ 2.45 µM)	–
CC(C)c1ccc(OCc2cn(-c3ccc(OC[C@@]4(C)Cn5cc([N+](=O)[O-])nc5O4)cc3)nn2)cc1 [IA30]	> 10	>40	32 (≈ 65.2 µM)	–
C[C@]1(COc2ccc(-n3cc(COc4ccc(F)cc4)nn3)cc2)Cn2cc([N+](=O)[O-])nc2O1 [IA26]	> 10	>40	0.5 (≈ 1.07 µM)	< 1
